Test results reported in patent US12024506B2, “Compounds” (Oxford University Innovation Limited, priority 2018, dated 2024).

What was measured:
[1] = tested on: H358 cells (ATCC CRL-5807); test: Cell viability assay 1 (CellTiter-Glo), H358 cells; assay type: cell-based; conditions: Homo sapiens, NCI-H358, 48 h, first value of the cell, read-out: Cell Viability H358 (concentration that decreases cell viability by 50%)
Description: (§1) Cells (A549 ATCC CCL-185) are cultured in Dulbecco's Modified Eagle's Medium plus 10% foetal calf serum and 2 mM L-glutamine at 37° C., 5% CO2. Cells are plated onto white clear bottom 96-well plates (5000 cells/well in 200 μl media) and left to adhere overnight at 37° C., 5% CO2. Next day, test compound (1 μl at 200× concentration in 100% DMSO) is added to give final test compound concentration 1× in 0.5% DMSO. After 48 h of incubation at 37° C., 5% CO2, 20 μl CellTiter-Glo reagent (Promega G7572) is added into each well. Plates are incubated at room temperature with shaking for 30 min and then luminescence is read using a PheraStar plate reader. The concentration of compounds that decrease cell viability by 50% is calculated from dose response curves generated using Dotmatics data analysis software.
In the H358 cell assay, cells (ATCC CRL-5807) are cultured in RPMI-1640 medium plus 10% foetal calf serum and 2 mM L-glutamine at 37° C., 5% CO2.

[2] = biological target: T1, GST-human KRas166 (G12V) GPPNHP (Homo sapiens, UniProt P01116, G12V); test: KRas small-molecule screening by SPR (Biacore T200); assay type: binding; conditions: compound 100 uM, 5% DMSO buffer; immobilised GST-KRas166 (G12V) GPPNHP
T1 construct: made in house; host or cells: E. coli C41(DE3)
Method in brief: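 GST-KRas166 G12V loaded with GPPNHP, captured on anti-GST CM5 chip at 10,000–15,000 RU, GST reference channel. Compounds run at 100 uM in buffer with 100 mM NaCl, 5 mM MgCl2, 5% DMSO, with DMSO solvent correction; Rmax for 1:1 binding taken as 63 RU.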

[3] = tested on: DLD1 cells (ATCC CCL-221); test: Cell viability assay 1 (CellTiter-Glo), DLD1 cells; assay type: cell-based; conditions: Homo sapiens, DLD-1 cells, 48 h, second value of the cell, read-out: Cell Viability DLD-1 (concentration that decreases cell viability by 50%)
Description: as §1
In the DLD1 cell assay, cells (ATCC CCL-221) are cultured in RPMI-1640 medium plus 10% foetal calf serum and 2 mM L-glutamine at 37° C., 5% CO2.

Row | Structure (SMILES) | IC50 [1] | SPR Response Units [2] | IC50 [3]
1 | COc1nc(-c2cccc3c2OCCO3)ccc1Nc1ccc(CNCC2CCN(Cc3ccccc3)CC2)cc1 [Example 187, (4-{[(1-Benzyl-piperidin-4-ylmethyl)-amino]-methyl}-phenyl)-[6-(2,3-dihydro-benzo[1,4]dioxin-5-yl)-2-methoxy-pyridin-3-yl]-amine] | 25.9 µM | 916 Response Units | 2.2 µM
2 | COc1nc(-c2cccc3c2OCCO3)ccc1Nc1ccc(CC(=O)N2CCN(C)CC2)cc1 [Example 198, 2-{4-[6-(2,3-Dihydro-benzo[1,4]dioxin-5-yl)-2-methoxy-pyridin-3-ylamino]-phenyl}-1-(4-methyl-piperazin-1-yl)-ethanone] | 1.57 µM | 330 Response Units | 21.8 µM
3 | COc1nc(-c2cccc3c2OCCO3)ccc1Nc1cccc(CNCC2CCN(Cc3ccccc3)CC2)c1 [Example 190, (3-{[(1-Benzyl-piperidin-4-ylmethyl)-amino]-methyl}-phenyl)-[6-(2,3-dihydro-benzo[1,4]dioxin-5-yl)-2-methoxy-pyridin-3-yl]-amine] | 8.6 µM | 665 Response Units | 1.6 µM
4 | COc1nc(-c2cccc3c2OCCO3)ccc1Nc1cccc(CNc2cccnc2)c1 [Example 143] | 17 µM | 67 Response Units | 6.1 µM
5 | COc1nc(-c2cccc3c2OCCO3)ccc1Nc1ccc(CNC[C@H]2COCCN2)cc1 [Example 129, [6-(2,3-Dihydro-benzo[1,4]dioxin-5-yl)-2-methoxy-pyridin-3-yl]-(4-{[((S)-1-morpholin-3-ylmethyl)-amino]-methyl}-phenyl)-amine] | 6.5 µM | 92 Response Units | 10.2 µM
6 | COc1nc(-c2cccc3c2OC(CNC(=O)C2CCOCC2)CO3)ccc1Nc1ccc(CNCc2ccn[nH]2)cc1 (stereo not drawn) [Example 120, Tetrahydro-pyran-4-carboxylic acid {8-[6-methoxy-5-(4-{[(2H-pyrazol-3-ylmethyl)-amino]-methyl}-phenylamino)-pyridin-2-yl]-2,3-dihydro-benzo[1,4]dioxin-2-ylmethyl}-amide] | 12.4 µM | 230 Response Units | 10.9 µM
7 | COc1nc(-c2cccc3c2OCCO3)ccc1Nc1ccc(CNCC2CCN(C)CC2)cc1 [Example 186, [6-(2,3-Dihydro-benzo[1,4]dioxin-5-yl)-2-methoxy-pyridin-3-yl]-(4-{[(1-methyl-piperidin-4-ylmethyl)-amino]-methyl}-phenyl)-amine] | 2.4 µM | 636 Response Units | 0.3 µM
8 | COc1cccc(-c2cccc3c2OC(CNC(=O)c2ccc(CN4CCN(C)CC4)o2)CO3)n1 (stereo not drawn) [Example 43, 5-(4-Methyl-piperazin-1-ylmethyl)-furan-2-carboxylic acid [8-(6-methoxy-pyridin-2-yl)-2,3-dihydro-benzo[1,4]dioxin-2-ylmethyl]-amide] | > 100 µM | 105 Response Units | 19 µM
9 | COc1nc(-c2cccc3c2OCCO3)ccc1Nc1cccc(CN2CCCC2)c1 [Example 60, [6-(2,3-Dihydro-benzo[1,4]dioxin-5-yl)-2-methoxy-pyridin-3-yl]-(3-pyrrolidin-1-ylmethyl-phenyl)-amine] | 11.4 µM | 108 Response Units | 7.5 µM
10 | COc1nc(-c2cccc3c2OCCO3)ccc1Nc1ccc(CNCc2cccc(F)n2)cc1 [Example 188, [6-(2,3-Dihydro-benzo[1,4]dioxin-5-yl)-2-methoxy-pyridin-3-yl]-(4-{[(6-fluoro-pyridin-2-ylmethyl)-amino]-methyl}-phenyl)-amine] | 27.4 µM | 103 Response Units | 49.5 µM
11 | COc1nc(-c2cccc3c2OCCO3)ccc1Nc1cccc(C2CCC(=O)N2)c1 (stereo not drawn) [Example 62, 5-{3-[6-(2,3-Dihydro-benzo[1,4]dioxin-5-yl)-2-methoxy-pyridin-3-ylamino]-phenyl}-pyrrolidin-2-one] | 8.6 µM | 72 Response Units | 13.7 µM
12 | COc1nc(-c2cccc3c2OC(CNC(=O)C2CCOCC2)CO3)ccc1Nc1cccc(CN(C)C)c1 (stereo not drawn) [Example 84, Tetrahydro-pyran-4-carboxylic acid {8-[5(3-dimethylamino-methyl-phenylamino)-6-methoxy-pyridin-2-yl]-2,3-dihydro-benzo[1,4]dioxin-2-ylmethyl}-amide] | 33 µM | 59 Response Units | 20 µM
13 | COc1nc(-c2cccc3c2OCCO3)ccc1Nc1ccc(C(=O)NCC2CCN(Cc3ccccc3)CC2)cc1 [Example 185, N-(1-Benzyl-piperidin-4-ylmethyl)-4-[6-(2,3-dihydro-benzo[1,4]dioxin-5-yl)-2-methoxy-pyridin-3-ylamino]-benzamide] | 2.4 µM | 122 Response Units | 1.2 µM
14 | COc1nc(-c2cccc3c2OCCO3)ccc1Nc1cccc(C(=O)NCC2CCNC(=O)C2)c1 (stereo not drawn) [Example 182, 3-[6-(2,3-Dihydro-benzo[1,4]dioxin-5-yl)-2-methoxy-pyridin-3-ylamino]-N-(2-oxo-piperidin-4-ylmethyl)-benzamide] | 27 µM | 198 Response Units | 11.3 µM
15 | COc1nc(-c2cccc3c2OCCO3)ccc1Nc1cccc(C(=O)NCC2CNC(=O)C2)c1 (stereo not drawn) [Example 166, 3-[6-(2,3-Dihydro-benzo[1,4]dioxin-5-yl)-2-methoxy-pyridin-3-ylamino]-N-(5-oxo-pyrrolidin-3-ylmethyl)-benzamide] | 20.5 µM | 133 Response Units | 8.3 µM
16 | COc1nc(-c2cccc3c2OCCO3)ccc1Nc1cccc(CC(=O)N2CCN(C)CC2)c1 [Example 204, 2-{3-[6-(2,3-Dihydro-benzo[1,4]dioxin-5-yl)-2-methoxy-pyridin-3-ylamino]-phenyl}-1-(4-methyl-piperazin-1-yl)-ethanone] | 19.8 µM | 423 Response Units | 17.6 µM
17 | COc1nc(-c2cccc3c2OCCO3)ccc1Nc1cccc(CC(=O)NC2CCN(C)CC2)c1 [Example 203, 2-{3-[6-(2,3-Dihydro-benzo[1,4]dioxin-5-yl)-2-methoxy-pyridin-3-ylamino]-phenyl}-N-(1-methyl-piperidin-4-yl)-acetamide] | 33.7 µM | 339 Response Units | 12.2 µM
18 | CN(C)Cc1cccc(Nc2ccc(-c3cccc4c3OCCO4)cc2)c1.O=CO [Example 70, [4-(2,3-Dihydro-benzo[1,4]dioxin-5-yl)-phenyl]-(3-dimethylaminomethyl-phenyl)-amine. formate salt] | 8.6 µM | 86 Response Units | 10.6 µM
19 | COc1nc(-c2cccc3c2OCCO3)ccc1Nc1ccc(C(=O)NCC2CCNCC2)cc1 [Example 179, 4-[6-(2,3-Dihydro-benzo[1,4]dioxin-5-yl)-2-methoxy-pyridin-3-ylamino]-N-piperidin-4-ylmethyl-benzamide] | 7.5 µM | 162 Response Units | 0.39 µM
20 | c1cc2c(c(-c3ccc(Nc4ccc(CNCC5COCCN5)cc4)cc3)c1)OCCO2 (stereo not drawn) [Example 151, 4-(2,3-dihydrobenzo[b][1,4]dioxin-5-yl)-N-(4-(((morpholin-3-ylmethyl)amino)methyl)phenyl)aniline] | 14.7 µM | 150 Response Units | 1.36 µM
21 | COc1nc(-c2cccc3c2OC(CNC(=O)C2CCOCC2)CO3)ccc1Nc1ccc(CNCc2ccccn2)cc1 (stereo not drawn) [Example 118, Tetrahydro-pyran-4-carboxylic acid {8-[6-methoxy-5-(4-{[(pyridin-2-ylmethyl)-amino]-methyl}-phenylamino)-pyridin-2-yl]-2,3-dihydro-benzo[1,4]dioxin-2-ylmethyl}-amide] | 12.8 µM | 291 Response Units | 11 µM
22 | COc1cccc(-c2cccc3c2OC(CN(Cc2ccc(OCCN(C)C)cc2)Cc2cccnc2)CO3)n1 (stereo not drawn) [Example 31, {2-[4-({[8-(6-Methoxy-pyridin-2-yl)-2,3-dihydrobenzo[1,4]dioxin-2-ylmethyl]-pyridin3-ylmethyl-amino}-methyl)-phenoxy]-ethyl}-dimethyl-amine] | 18 µM | 119 Response Units | 3 µM
23 | COc1nc(-c2cccc3c2OCCO3)ccc1Nc1cccc(CNCC2CCC(=O)NC2)c1 (stereo not drawn) [Example 195, 5-({3-[6-(2,3-Dihydro-benzo[1,4]dioxin-5-yl)-2-methoxy-pyridin-3-ylamino]-benzylamino}-methyl)-piperidin-2-one] | 13 µM | 176 Response Units | 3.8 µM
